# Activity calls are given as the source filed them. Cut-off read from the data, not from the text of the source, for most assays here: actives have a measured EC50 and inactives only a lower limit.
# Assays:
# H9c2 = assay: cells; format: functional, cell-based; details: Rattus norvegicus, H9c2, Myocardium;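 note: confirmatory concentration-response retest of ultra-high-throughput screening hits for modulation of myocardial damage; cell death induced by hydrogen peroxide oxidative stress; compound pretreatment for 60 min then peroxide exposure for 2 h; potency is for protecting the cells against peroxide damage rather than for killing them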
# [1] = molecular target: T1, Corticotropin-releasing factor receptor 2/Corticotropin-releasing factor-binding protein (Homo sapiens, UniProt P24387+Q13324); assay: activators of CRF receptor 2 with binding protein – uHTS hits, confirmation (AID 602473); format: functional; details: read-out: EC50_Mean
# T1 sequence (Q13324 whole entry): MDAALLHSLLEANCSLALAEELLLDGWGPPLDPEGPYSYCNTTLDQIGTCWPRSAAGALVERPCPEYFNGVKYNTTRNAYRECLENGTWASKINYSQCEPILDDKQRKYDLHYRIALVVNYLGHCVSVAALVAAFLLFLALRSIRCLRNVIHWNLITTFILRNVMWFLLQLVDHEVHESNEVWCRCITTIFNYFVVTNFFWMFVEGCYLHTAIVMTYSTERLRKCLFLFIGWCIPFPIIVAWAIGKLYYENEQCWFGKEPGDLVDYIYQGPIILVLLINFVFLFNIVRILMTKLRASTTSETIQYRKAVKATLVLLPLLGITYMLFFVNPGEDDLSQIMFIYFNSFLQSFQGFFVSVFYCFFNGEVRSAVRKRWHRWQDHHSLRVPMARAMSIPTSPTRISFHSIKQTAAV
# T1 sequence (P24387 whole entry): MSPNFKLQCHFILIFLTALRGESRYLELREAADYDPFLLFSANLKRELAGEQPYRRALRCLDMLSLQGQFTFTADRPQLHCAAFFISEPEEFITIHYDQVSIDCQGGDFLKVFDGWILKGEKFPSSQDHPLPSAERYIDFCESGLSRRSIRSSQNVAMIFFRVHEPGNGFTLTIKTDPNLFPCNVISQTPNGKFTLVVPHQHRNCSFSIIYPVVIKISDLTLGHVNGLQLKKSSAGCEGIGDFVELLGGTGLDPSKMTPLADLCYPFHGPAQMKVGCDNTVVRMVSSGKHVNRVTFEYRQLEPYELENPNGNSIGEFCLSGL
# [2] = molecular target: T2, Heat shock factor protein 1 (Mus musculus, UniProt P38532); assay: enhancement of HSF1-driven luciferase signal – cell-based, NIH3T3, luminescence, dose retest, confirmation (AID 435004); format: functional;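 note: stress induced by proteasome inhibitor MG132 added 30 min after compound; luciferase reporter driven by HSF1 response element in NIH3T3 cells; actives raise luminescence as potentiators of the MG132 stress response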
# T2 sequence (P38532 whole entry): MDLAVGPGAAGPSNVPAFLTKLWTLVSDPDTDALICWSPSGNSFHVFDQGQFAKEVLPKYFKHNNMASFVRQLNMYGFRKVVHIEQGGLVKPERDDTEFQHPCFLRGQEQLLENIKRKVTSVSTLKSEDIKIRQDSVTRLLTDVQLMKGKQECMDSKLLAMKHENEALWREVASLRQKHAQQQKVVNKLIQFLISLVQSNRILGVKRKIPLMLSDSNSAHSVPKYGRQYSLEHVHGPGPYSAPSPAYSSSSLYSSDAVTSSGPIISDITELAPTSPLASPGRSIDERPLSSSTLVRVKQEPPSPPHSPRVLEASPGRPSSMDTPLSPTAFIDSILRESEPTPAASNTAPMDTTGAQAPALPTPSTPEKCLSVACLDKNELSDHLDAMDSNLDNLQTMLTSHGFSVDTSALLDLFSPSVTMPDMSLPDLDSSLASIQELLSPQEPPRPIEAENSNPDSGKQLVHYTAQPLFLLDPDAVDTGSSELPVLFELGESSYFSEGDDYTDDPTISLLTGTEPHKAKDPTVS
# H4 = assay: Luminescence Cell-Based Dose Response HTS to Identify Activators of 5'UTR Stem-Loop Driven Prion Protein mRNA Translation in H4 Neuroglioblastoma Cells. [Related pubchem assays: 1829 (Project Summary), 1814 (Primary HTS)]; format: functional; details: Homo sapiens
# [3] = Luminescence Cell-Based Dose Response HTS to Identify Activators of Luciferase Translation or Activity in H4 […] Cells. [Related pubchem assays: 1829 (Project Summary), 1814 (Primary HTS)]; format: functional
# [4] = Luminescence Cell-Based Dose Confirmation HTS to Identify Activators of 5'UTR Stem-Loop Driven Alpha-Synuclein mRNA Translation in H4 Neuroglioblastoma Cells. [Related pubchem assays: 1829 (Project Summary), 1814 (Primary HTS)]; format: functional
# INS1 = assay: INS-1E survival protection against cytokine death – cell-based, luminescence, retest, dose response (AID 449756); format: functional; details: Rattus norvegicus;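 note: cell death triggered by IL-1 beta plus TNF-alpha plus IFN-gamma mixture; protective hits raise ATP signal compared with cytokine alone wells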
# [5] = NIH3T3 cell viability loss – ATP luminescence, mouse fibroblasts, counter-screen, dose response (AID 2010); format: functional, cell-based;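 note: cells exposed to compound for about 90 hours before reading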
# [6] = Trypanosoma cruzi growth suppression in host cells – NIH3T3 host cells, beta-gal luminescence, confirmation (AID 2044); format: functional, cell-based;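 note: intracellular parasites grown in NIH/3T3 mouse fibroblasts as host cells; luminescent beta-galactosidase reporter signal from transgenic T. cruzi replicating inside host cells; inhibitors lower the luminescence signal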
# Protein skinhead-1 = molecular target: T3, Protein skinhead-1 (Caenorhabditis elegans, UniProt P34707); format: functional
# T3 sequence (P34707 whole entry): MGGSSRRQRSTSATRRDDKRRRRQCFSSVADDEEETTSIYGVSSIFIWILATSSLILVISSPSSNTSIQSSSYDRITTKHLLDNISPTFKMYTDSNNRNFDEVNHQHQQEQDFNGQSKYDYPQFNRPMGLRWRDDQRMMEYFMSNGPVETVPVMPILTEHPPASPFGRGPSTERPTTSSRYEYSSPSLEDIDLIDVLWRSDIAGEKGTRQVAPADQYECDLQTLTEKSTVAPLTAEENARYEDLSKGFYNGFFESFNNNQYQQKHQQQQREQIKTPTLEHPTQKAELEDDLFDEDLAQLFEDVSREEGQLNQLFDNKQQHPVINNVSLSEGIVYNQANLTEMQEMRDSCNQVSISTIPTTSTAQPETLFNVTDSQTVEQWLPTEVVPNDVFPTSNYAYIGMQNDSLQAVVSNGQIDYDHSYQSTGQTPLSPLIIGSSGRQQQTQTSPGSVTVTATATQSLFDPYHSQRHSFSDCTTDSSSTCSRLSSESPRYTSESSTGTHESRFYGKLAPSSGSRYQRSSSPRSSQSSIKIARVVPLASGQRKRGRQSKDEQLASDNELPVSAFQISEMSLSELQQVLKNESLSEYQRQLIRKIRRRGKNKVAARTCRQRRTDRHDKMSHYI
# [7] = viability of uninfected HEp-2 cells – cell-based, HTS, cytotoxicity control for RSV inhibitor project, dose response (AID 2410); format: functional; details: human respiratory syncytial virus
Compound,IC50 (H9c2),EC50 (H4),EC50 [3],EC50 [4],other results
O=C(NN=Cc1ccc(N2CCOCC2)s1)c1ccc([N+](=O)[O-])cc1,13.1 µM (active),,,,
CCCCn1/c(=N/C(=O)c2cccnc2)c(C#N)cc2c(=O)n3cccc(C)c3nc21,26.2 µM (active),,,,EC50 [1]: > 53 µM (inactive)
Cc1oc2ccc(NS(=O)(=O)c3ccc(C(C)(C)C)cc3)cc2c1C(=O)Nc1ccccc1,,,,,EC50 [2]: > 260 µM (inactive)
COc1ccc(-c2c(C)c3cc(O)ccc3oc2=O)cc1OC,,,,,EC50 [2]: > 260 µM (inactive)
O=C(Cn1[nH]c(=O)c2ccccc2c1=O)OCC(=O)N1CCCc2ccccc21,> 79 µM (inactive),,,,
Cc1cc(C)nc(NC(=O)CSc2nc3ccccc3s2)n1,,15.1 µM (active),48.4 µM (active),4.91 µM (active),
O=C1NC(c2ccccc2)=N/C1=C/c1ccco1,,5.71 µM (active),55.5 µM (active),0.322 µM (active),
CCOC(=O)C1(Cc2cccc(OC)c2)CCCN(C(=O)c2cc(C)[nH]n2)C1 (configuration not stated),,> 120 µM (not active),23.2 µM (active),12.5 µM (active),
CC1(C)CC(=O)c2sc(NC(=O)C(C)(C)C)nc2C1,,18.5 µM (active),1.31 µM (active),16 µM (active),
CC(=O)c1ccc(NC(=O)CSc2nc(=O)cc(N)n2-c2ccccc2)cc1,,10.9 µM (active),12.3 µM (active),22.5 µM (active),
COc1cc2c(cc1OC)C(COc1ccc3c(C)cc(=O)oc3c1)N(C(=O)c1ccco1)CC2 (configuration not stated),> 79 µM (inactive),,,,
CCc1n[nH]c(SCc2ccc(OCC(C)C)cc2)n1,,> 120 µM (not active),10.2 µM (active),22.6 µM (active),
Cc1[nH]c2ccccc2c1CN1CCN(c2ccccn2)CC1,,,,,EC50 [2]: 84 µM (active); AC50 (INS1): 4.21 µM (active); EC50 [5]: > 60 µM (not active); EC50 [6]: 1.28 µM (active)
CC(C)(C)OC(=O)NCC12C=CC(O1)C1C(=O)N(Cc3ccccc3)C(=O)C12 (configuration not stated),> 79 µM (inactive),,,,IC50 (Protein skinhead-1): > 100 µM (inactive)
CN(C)N(Cc1ccccc1)C(=O)C(O)(c1ccccc1)c1ccccc1,> 79 µM (inactive),,,,
COc1cc(C(=O)Sc2ccc(Cl)cc2)cc(OC)c1OC,,,,,EC50 [2]: 1.49 µM (active); CC50 [7]: 32.8 µM (active)
Cn1c(=O)n(/N=C/c2ccccc2)c2ccccc21,,31 µM (active),10.7 µM (active),17.3 µM (active),
